Experimental data reported in patent US12297186B2, “Benzylamide derivatives as inhibitors of transforming growth factor-beta receptor I/ALK5” (AGOMAB SPAIN, S.L.U., priority 2019, dated 2025).
Structures can show the parent of a compound that is named as a salt. Where two headings read alike, the source gives them in different places. One block for each molecule: values may come before it.

What was measured:
Human TGFβR-1 kinase = Human TGFβR-1 kinase (Homo sapiens (Human), UniProt P36897); assay: In vitro enzyme assay: inhibition of TGFβR-1 kinase activity (ADP-Glo); assay type: biochemical
Human TGFβR-1 kinase, sequence (P36897 34-503): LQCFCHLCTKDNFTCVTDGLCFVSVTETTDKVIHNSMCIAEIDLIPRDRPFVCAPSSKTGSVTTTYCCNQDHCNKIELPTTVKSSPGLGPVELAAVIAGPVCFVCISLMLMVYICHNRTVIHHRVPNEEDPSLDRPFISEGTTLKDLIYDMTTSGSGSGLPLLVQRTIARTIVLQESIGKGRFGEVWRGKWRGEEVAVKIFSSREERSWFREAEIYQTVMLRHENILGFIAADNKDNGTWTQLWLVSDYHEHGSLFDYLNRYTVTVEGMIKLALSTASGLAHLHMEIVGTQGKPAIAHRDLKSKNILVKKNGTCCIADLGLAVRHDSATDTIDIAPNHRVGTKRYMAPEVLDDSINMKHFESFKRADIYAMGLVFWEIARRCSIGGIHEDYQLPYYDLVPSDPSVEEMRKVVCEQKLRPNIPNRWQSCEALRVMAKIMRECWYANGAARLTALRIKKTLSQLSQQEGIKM
Experimental: In Vitro Enzyme Assay: Inhibition of TGFβR-1Kinase Activity
Human TGFβl R-1 inhibition experiments were carried out in a white 384-microplate low flange (Corning 3572) with ADP-Glo kinase Assay Kit (Promega V9101) and TGβR-1 Kinase Enzyme System (Promega V4092). […] The reaction mixture was incubated in gentle shaking for 120 min at RT, after incubation of 10 μL of ADP-Glo Reagent was added and incubated in gentle shaking for 40 min at RT. 20 μL of Kinase Detection Reagent was added and plate was incubated in gentle shaking for 30 min at RT. Luminiscence (1000 ms) was measured in Perkin Elmer EnSpire Multimode plate reader.

TGF-beta kinase (ALK-5) = TGF-beta kinase (ALK-5) (Homo sapiens (Human), UniProt P36897); assay: Determination of the intracellular TGF-beta kinase activity (ALK-5), p-SMAD3 AlphaLISA in A549 cells; assay type: cell-based; details: A549 cell line
TGF-beta kinase (ALK-5), sequence (P36897 34-503): as above
Experimental: Determination of the Intracellular TGF-beta Kinase Activity (ALK-5)
The experiments were carried out in A549 cell line. 30000 cells were seeded in 200 μl of culture medium (Sigma D6046) supplemented with L-Glutamine (Sigma G7513), Penicillin/Streptomycin (Invitrogen 11058) and FBS (Sigma F9665) on a 96 wells microplate (Becton Dickinson 353072). After 16 hours medium waschanged to serum free medium.

[1] = Plasma pharmacokinetic assay, single oral administration; assay type: in vivo, male Sprague Dawley rats; details: male, Sprague-Dawley, po; rat, P.O., 5 mg/kg, plasma
Experimental: Plasma Pharmacokinetic Assay
The objective of this study was to investigate the plasma pharmacokinetics of some compounds of the present invention in male Sprague Dawley rats following a single oral administration. Three rats per compound were used in this study. Animals were administered with suspension formulation of each compound in 0.5% Tween-80 and 99.5% NaCMC (0.5% w/v in RO Water) by oral route at 5 mg/kg. The blood samples were collected from set of three rats at each time point in labelled micro centrifuge tube containing K2EDTA solution as anticoagulant at 0.25, 0.5, 1, 2, 4, 6, 8, 12 and 24 hr (p.o.). Plasma samples were separated by centrifugation of whole blood and stored below −70±10° C. until bioanalysis. All samples were processed for analysis by protein precipitation using acetonitrile and analysed with fit-for-purpose LC-MS/MS method (LLOQ=1.01 ng/mL). Pharmacokinetic parameters were calculated using the non-compartmental analysis tool of Phoenix WinNonlin® (Version 7.0).

[2] = Identification study of metabolite; assay type: in vitro ADME
Source text: In an identification study of metabolite was identified Compound A. Said compound is 2-(3-(6-methylpyridin-2-yl)-4-(quinolin-4-yl)-1H-pyrazol-1-yl)acetic acid and has the following formula: […]
Compound A was identified as the major metabolite of examples 9, 15, 20, 22, 24 and 26, among others.

[3] = Metabolic stability assay, human microsomes; assay type: in vitro ADME; details: for microsomal CLint: human recombinant microsomes (Tebu-Xenotech)
Experimental: (§1) Metabolic Stability Assay
(§2) Human and rat recombinant microsomes from Tebu-Xenotech were employed in the assay. They content 0.5 mg/ml of protein. The following quantities were added to each well of a 96-well microplate.
(§3) Plates were incubated at 37° C. and 75 μL samples were taken at 0, 10, 20, 40 and 60 minutes. Samples were transferred to a microplate and 75 μl Acetonitrile were added for inactivating the microsomes, and 30 μl of H2O for improving the chromatographic conditions and kept at 4° C. When all the samples were taken the plate was centrifuged at […] for 30 min at 15° C. Supernatant was taken and injected in the UPLC-MS/MS.
(§4) Stationary phase: Reverse phase Acquity UPLC® BEH C18 1.7 μm (2.1 mm×50 mm) (Waters). Mobile phase: A: 0.1% formic; B:acetonitrile+0.1% formic acid. Flow: 0.6 ml/min. The chromatographic equipment employed was an UPLC QSM Waters Acquity. Compound concentrations were calculated from the UV peak areas. The response was linear in the range between 10 ng/ml and 0.3125 ng/ml. Metabolic stability was calculated from the logarithm of the remaining compound at each of the times evaluated.
(§5) The data will be fitted to the one phase exponential decay equation using GraphPad Prism® software. The half-life (t1/2) generated by the software will be reported. Intrinsic clearance will be calculated using the formula where, k=decay rate constant (min^−1).

[4] = Metabolic stability assay, rat microsomes; assay type: in vitro ADME; details: for microsomal CLint: rat recombinant microsomes (Tebu-Xenotech), pH 7.4
Experimental: as §1, §2, §3, §4, §5

[5] = TGFβR-1 kinase, 50 μM ATP, read-out: IC50 range
[6] = TGF-β2 activated, p-SMAD3, read-out: IC50 range

IC50 (Human TGFβR-1 kinase; [5]): < 0.1 µM
Structure (SMILES): CCc1cccc(-c2nn(CC(=O)NCc3ccccc3)cc2-c2ccnc3ccccc23)n1 [Example 18, N-benzyl-2-(3-(6-ethylpyridin-2-yl)-4-(quinolin-4-yl)-1H-pyrazol-1-yl)acetamide]

IC50 (Human TGFβR-1 kinase; [5]): < 0.1 µM
IC50 (TGF-beta kinase (ALK-5); [6]): 0.1 to 0.5 µM
Structure (SMILES): CCc1cccc(-c2nn(CC(=O)NCc3ccccc3C)cc2-c2ccnc3ccccc23)n1 [Example 19, 2-(3-(6-ethylpyridin-2-yl)-4-(quinolin-4-yl)-1H-pyrazol-1-yl)-N-(2-methylbenzyl)acetamide]

IC50 (Human TGFβR-1 kinase; [5]): < 0.1 µM
% remanent (sampling time 60 min) [3]: 0.01%
microsomal CLint [3]: 216 µL/min/mg
Major metabolite identified [2]: Compound A
% remanent (sampling time 60 min) [4]: 0.02%
microsomal CLint [4]: 381 µL/min/mg
IC50 (TGF-beta kinase (ALK-5); [6]): < 0.1 µM
Structure (SMILES): Cc1ccc(CNC(=O)Cn2cc(-c3ccnc4ccccc34)c(-c3cccc(C)n3)n2)cc1 [Example 20, N-(4-methylbenzyl)-2-(3-(6-methylpyridin-2-yl)-4-(quinolin-4-yl)-1H-pyrazol-1-yl)acetamide]

IC50 (Human TGFβR-1 kinase; [5]): 0.1 to 0.8 µM
Structure (SMILES): O=C(Cn1cc(-c2ccnc3ccccc23)c(-c2ccccn2)n1)NCc1ccccc1Cl [Example 21, N-(2-chlorobenzyl)-2-(3-(pyridin-2-yl)-4-(quinolin-4-yl)-1H-pyrazol-1-yl)acetamide]

IC50 (Human TGFβR-1 kinase; [5]): 0.1 to 0.8 µM
Structure (SMILES): O=C(Cn1cc(-c2ccnc3ccccc23)c(-c2ccccn2)n1)NCc1c(F)cccc1F [Example 23, N-(2,6-difluorobenzyl)-2-(3-(pyridin-2-yl)-4-(quinolin-4-yl)-1H-pyrazol-1-yl)acetamide]

IC50 (Human TGFβR-1 kinase; [5]): < 0.1 µM
Structure (SMILES): Cc1cccc(C)c1CNC(=O)Cn1cc(-c2ccnc3ccccc23)c(-c2ccccn2)n1 [Example 25, N-(2,6-dimethylbenzyl)-2-(3-(pyridin-2-yl)-4-(quinolin-4-yl)-1H-pyrazol-1-yl)acetamide]

IC50 (Human TGFβR-1 kinase; [5]): < 0.1 µM
% remanent (sampling time 60 min) [3]: 0.53%
microsomal CLint [3]: 505 µL/min/mg
% remanent (sampling time 60 min) [4]: 0.31%
microsomal CLint [4]: 600 µL/min/mg
IC50 (TGF-beta kinase (ALK-5); [6]): < 0.1 µM
Structure (SMILES): CCc1ccccc1CNC(=O)Cn1cc(-c2ccnc3ccccc23)c(-c2cccc(C)n2)n1 [Example 27, N-(2-ethylbenzyl)-2-(3-(6-methylpyridin-2-yl)-4-(quinolin-4-yl)-1H-pyrazol-1-yl)acetamide]

IC50 (Human TGFβR-1 kinase; [5]): < 0.1 µM
IC50 (TGF-beta kinase (ALK-5); [6]): 0.1 to 0.5 µM
Structure (SMILES): Cc1cccc(-c2nn(CC(=O)NCc3c(Cl)cccc3Cl)cc2-c2ccnc3ccccc23)n1 [Example 28, N-(2,6-dichlorobenzyI)-2-(3-(6-methylpyridin-2-yl)-4-(quinolin-4-yl)-1H-pyrazol-1-yl)acetamide]

IC50 (Human TGFβR-1 kinase; [5]): 0.1 to 0.8 µM
Structure (SMILES): O=C(Cn1cc(-c2ccnc3ccccc23)c(-c2ccccn2)n1)NCc1ccc(C(=O)O)cc1 [Example 29, 4-((2-(3-(pyridin-2-yl)-4-(quinolin-4-yl)-1H-pyrazol-1-yl)acetamido)methyl)benzoic acid hydrochloride]

The remaining lines, values behind:

Structure (SMILES): Cc1cccc(-c2nn(CC(=O)O)cc2-c2ccnc3ccccc23)n1 [Compound A, 2-(3-(6-methylpyridin-2-yl)-4-(quinolin-4-yl)-1H-pyrazol-1-yl)acetic acid]
IC50 (Human TGFβR-1 kinase; enzyme assay, read-out: IC50 against TGFβR-1): > 0.8 µM
IC50 (TGF-beta kinase (ALK-5); read-out: IC50 intracellular TGF-beta kinase activity (ALK-5)): > 5 µM

Structure (SMILES): O=C(Cn1cc(-c2ccnc3ccccc23)c(-c2ccccn2)n1)NCc1ccccc1 [Example 1, N-benzyl-2-(3-(pyridin-2-yl)-4-(quinolin-4-yl)-1H-pyrazol-1-yl)acetamide]
IC50 (Human TGFβR-1 kinase; [5]): < 0.1 µM
IC50 (TGF-beta kinase (ALK-5); [6]): 0.1 to 0.5 µM

Structure (SMILES): O=C(Cn1cc(-c2ccnc3ccccc23)c(-c2ccccn2)n1)NCc1ccc(F)cc1 [Example 2, N-(4-fluorobenzyl)-2-(3-(pyridin-2-yl)-4-(quinolin-4-yl)-1H-pyrazol-1-yl)acetamide]
IC50 (Human TGFβR-1 kinase; [5]): 0.1 to 0.8 µM

Structure (SMILES): O=C(Cn1cc(-c2ccnc3ccccc23)c(-c2ccccn2)n1)NCc1ccc(Cl)cc1 [Example 3, N-(4-chlorobenzyl)-2-(3-(pyridin-2-yl)-4-(quinolin-4-yl)-1H-pyrazol-1-yl)acetamide]
IC50 (Human TGFβR-1 kinase; [5]): 0.1 to 0.8 µM

Structure (SMILES): O=C(Cn1cc(-c2ccnc3ccccc23)c(-c2ccccn2)n1)NCc1ccc(Br)cc1 [Example 4, N-(4-bromobenzyl)-2-(3-(pyridin-2-yl)-4-(quinolin-4-yl)-1H-pyrazol-1-yl)acetamide]
IC50 (Human TGFβR-1 kinase; [5]): 0.1 to 0.8 µM

Structure (SMILES): Cc1ccc(CNC(=O)Cn2cc(-c3ccnc4ccccc34)c(-c3ccccn3)n2)cc1 [Example 7, N-(4-methylbenzyl)-2-(3-(pyridin-2-yl)-4-(quinolin-4-yl)-1H-pyrazol-1-yl)acetamide]
IC50 (Human TGFβR-1 kinase; [5]): 0.1 to 0.8 µM

Structure (SMILES): Cc1cccc(-c2nn(CC(=O)NCc3ccccc3)cc2-c2ccnc3ccccc23)n1 [Example 9, N-benzyl-2-(3-(6-methylpyridin-2-yl)-4-(quinolin-4-yl)-1H-pyrazol-1-yl)acetamide]
IC50 (Human TGFβR-1 kinase; [5]): < 0.1 µM
AUC(0-inf) [1]: 0.0277 µg·h/mL
AUC(0-t) [1]: 0.027 µg·h/mL
Cmax [1]: 0.0628 µg/mL
Tmax [1]: 15 min
Major metabolite identified [2]: Compound A
IC50 (TGF-beta kinase (ALK-5); [6]): < 0.1 µM

Structure (SMILES): Cc1cccc(CNC(=O)Cn2cc(-c3ccnc4ccccc34)c(-c3ccccn3)n2)c1 [Example 10, N-(3-methylbenzyl)-2-(3-(pyridin-2-yl)-4-(quinolin-4-yl)-1H-pyrazol-1-yl)acetamide]
IC50 (Human TGFβR-1 kinase; [5]): 0.1 to 0.8 µM

Structure (SMILES): O=C(Cn1cc(-c2ccnc3ccccc23)c(-c2ccccn2)n1)NCc1cccc(F)c1 [Example 11, N-(3-fluorobenzyl)-2-(3-(pyridin-2-yl)-4-(quinolin-4-yl)-1H-pyrazol-1-yl)acetamide]
IC50 (Human TGFβR-1 kinase; [5]): 0.1 to 0.8 µM

Structure (SMILES): O=C(Cn1cc(-c2ccnc3ccccc23)c(-c2ccccn2)n1)NCc1cccc(Cl)c1 [Example 12, N-(3-chlorobenzyl)-2-(3-(pyridin-2-yl)-4-(quinolin-4-yl)-1H-pyrazol-1-yl)acetamide]
IC50 (Human TGFβR-1 kinase; [5]): 0.1 to 0.8 µM

Structure (SMILES): N#Cc1cccc(CNC(=O)Cn2cc(-c3ccnc4ccccc34)c(-c3ccccn3)n2)c1 [Example 13, N-(3-cyanobenzyl)-2-(3-(pyridin-2-yl)-4-(quinolin-4-yl)-1H-pyrazol-1-yl)acetamide]
IC50 (Human TGFβR-1 kinase; [5]): 0.1 to 0.8 µM

Structure (SMILES): Cc1ccccc1CNC(=O)Cn1cc(-c2ccnc3ccccc23)c(-c2ccccn2)n1 [Example 14, N-(2-methylbenzyl)-2-(3-(pyridin-2-yl)-4-(quinolin-4-yl)-1H-pyrazol-1-yl)acetamide]
IC50 (Human TGFβR-1 kinase; [5]): 0.1 to 0.8 µM

Structure (SMILES): Cc1cccc(-c2nn(CC(=O)NCc3ccccc3C)cc2-c2ccnc3ccccc23)n1 [Example 15, N-(2-methylbenzyl)-2-(3-(6-methylpyridin-2-yl)-4-(quinolin-4-yl)-1H-pyrazol-1-yl)acetamide]
IC50 (Human TGFβR-1 kinase; [5]): < 0.1 µM
AUC(0-inf) [1]: 0.0394 µg·h/mL
AUC(0-t) [1]: 0.0351 µg·h/mL
Cmax [1]: 0.0758 µg/mL
Tmax [1]: 15 min
Major metabolite identified [2]: Compound A
IC50 (TGF-beta kinase (ALK-5); [6]): 0.1 to 0.5 µM

Structure (SMILES): O=C(Cn1cc(-c2ccnc3ccccc23)c(-c2ccccn2)n1)NCc1ccccc1F [Example 16, N-(2-fluorobenzyl)-2-(3-(pyridin-2-yl)-4-(quinolin-4-yl)-1H-pyrazol-1-yl)acetamide]
IC50 (Human TGFβR-1 kinase; [5]): 0.1 to 0.8 µM

Structure (SMILES): Cc1cccc(-c2nn(CC(=O)NCc3ccccc3F)cc2-c2ccnc3ccccc23)n1 [Example 17, N-(2-fluorobenzyl)-2-(3-(6-methylpyridin-2-yl)-4-(quinolin-4-yl)-1H-pyrazol-1-yl)acetamide]
IC50 (Human TGFβR-1 kinase; [5]): 0.1 to 0.8 µM
